For orientation: IC50 means the point on the concentration scale where inhibition reaches its midpoint. A higher IC50 goes with a need for much substance.

The test has as its target T1, Full length (FL) 3-Phosphoglycerate Dehydrogenase (PHGDH) (Homo sapiens, UniProt O43175).
T1 construct: Full length (FL) 3-Phosphoglycerate Dehydrogenase (PHGDH) Diaphorase coupled assay (500 uM NAD)
T1 sequence (O43175 1-533): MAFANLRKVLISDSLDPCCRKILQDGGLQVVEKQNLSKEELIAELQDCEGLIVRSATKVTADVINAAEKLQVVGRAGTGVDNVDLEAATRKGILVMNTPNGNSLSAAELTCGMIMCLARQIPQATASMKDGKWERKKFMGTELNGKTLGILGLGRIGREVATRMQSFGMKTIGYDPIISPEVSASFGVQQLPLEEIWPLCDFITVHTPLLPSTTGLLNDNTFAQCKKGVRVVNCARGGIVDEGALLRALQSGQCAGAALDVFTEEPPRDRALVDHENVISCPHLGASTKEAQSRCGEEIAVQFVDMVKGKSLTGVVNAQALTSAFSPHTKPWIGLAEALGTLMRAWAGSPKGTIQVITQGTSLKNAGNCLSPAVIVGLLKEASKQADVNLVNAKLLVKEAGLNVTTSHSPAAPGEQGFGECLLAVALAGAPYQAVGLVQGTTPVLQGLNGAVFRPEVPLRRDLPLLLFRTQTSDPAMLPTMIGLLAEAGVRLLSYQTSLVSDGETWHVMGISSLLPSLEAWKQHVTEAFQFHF
Description: Full length (FL) PHGDH Diaphorase coupled assay (20 uM NAD). It is filed as biochemical. The settings on record: full-length PHGDH 10 nM, 30° C. 60 minutes, resorufin fluorescence. As to the method: PHGDH activity was determined by detecting the NADH produced during the reaction. Diaphorase was used to catalyze the oxidation of NADH with the concomitant reduction of resazurin to the fluorescent product resorufin. Resorufin fluorescence quantitatively reflected the production of NADH by the PHGDH reaction. To drive the forward reaction, two enzymes in the serine synthesis pathway subsequent to PHGDH, Phosphoserine aminotransferase (PSAT1) and phosphoserine phosphatase (PSPH) were also added to the reaction.
Regarding `CNC(=O)NS(=O)(=O)N1CCCC(NC(=O)c2cc3c(Cl)c(Cl)ccc3n2C)(c2ccccc2)C1` (racemic) [I-146 e6], the concentration for half-maximal inhibition (IC50) was 5000 to 10000 nM.

`Cn1c(C(=O)NC2(c3cccc(C(N)=O)c3)CCOC2)cc2c(Cl)c(Cl)ccc21` (racemic) [I-141 e140, (±)-N-[3-(3-Carbamoylphenyl)tetrahydrofuran-3-yl]-4,5-dichloro-1-methyl-indole-2-carboxamide] had an IC50 of 1000 to 5000 nM. The result for `Cn1c(C(=O)NC2(c3ccc(CC(=O)O)cc3)CCOC2)cc2c(Cl)c(Cl)ccc21` (racemic) [I-129 e149, (±)-2-[4-[3-[(4,5-Dichloro-1-methyl-indole-2-carbonyl)amino]tetrahydrofuran-3-yl]phenyl]acetic acid] reads 1 to 1000 nM. Under `CC(=O)NS(=O)(=O)N1CC(NC(=O)c2cc3c(Cl)c(Cl)ccc3n2C)(c2ccccc2)C1` [I-148 e9] stands 5000 to 10000 nM; under `CNC(=O)NS(=O)(=O)N1CCCC(NC(=O)c2cc3c(Cl)c(Cl)ccc3n2C)(c2cccc(CO)c2)C1` (racemic) [I-138 e16], 5000 to 10000 nM. Under `Cn1c(C(=O)NC2(c3ccc(C(N)=O)cc3)CCOC2)cc2c(Cl)c(Cl)ccc21` (racemic) [I-131 e144, (±)-N-[3-(4-Carbamoylphenyl)tetrahydrofuran-3-yl]-4,5-dichloro-1-methyl-indole-2-carboxamide] stands 1000 to 5000 nM; under `Cn1c(C(=O)NC2(c3cccc(C#N)c3)CCOC2)cc2c(Cl)c(Cl)ccc21` (racemic) [I-143 e139, (±)-4,5-dichloro-N-[3-(3-cyanophenyl)tetrahydrofuran-3-yl]-1-methyl-indole-2-carboxamide], 1000 to 5000 nM. For the molecule `Cn1c(C(=O)NC2(c3ccc(C(=O)O)cc3)CCOC2)cc2c(Cl)c(Cl)ccc21` (racemic) [I-136 e145, (±)-4-[3-[(4,5-Dichloro-1-methyl-indole-2-carbonyl)amino]tetrahydrofuran-3-yl]benzoic acid], the half-inhibitory concentration (IC50) lay in the range of 1 to 1000 nM. Under `CN1CCC(NC(=O)c2cc3c(Cl)c(Cl)ccc3n2C)(c2ccc(C(=O)O)cc2)C1` (racemic) [I-130 e17] stands 1 to 1000 nM; under `CNC(=O)NS(=O)(=O)N1CCCC(NC(=O)c2cc3c(Cl)c(Cl)ccc3n2C)(c2ccc(C(=O)O)cc2)C1` (racemic) [I-140 e15], 1 to 1000 nM.

Regarding `Cn1c(C(=O)N[C@]2(c3ccc(C(=O)O)cc3)CCOC2)cc2c(Cl)c(Cl)ccc21` (single isomer, unassigned; peak 1) [I-133 or I-132 e146 peak 1], the IC50 fell in the range of 1 to 1000 nM. Take `CC(=O)NS(=O)(=O)N1CCC(NC(=O)c2cc3c(Cl)c(Cl)ccc3n2C)(c2cccc(N)c2)CC1` [I-145 e13]: the IC50 lay within 5000 to 10000 nM.

With `Cn1c(C(=O)NC2(c3ccccc3)CCN(S(=O)(=O)Nc3cnccn3)CC2)cc2c(Cl)c(Cl)ccc21` [I-152 e3], the IC50 lay within 1000 to 5000 nM. The result for `Cn1c(C(=O)NC2(c3ccc(Br)cc3)CCOC2)cc2c(Cl)c(Cl)ccc21` (racemic) [I-135 e142, (±)-N-[3-(4-Bromophenyl)tetrahydrofuran-3-yl]-4,5-dichloro-1-methyl-indole-2-carboxamide] reads 1000 to 5000 nM; that for `CC(=O)Nc1cccc(C2(NC(=O)c3cc4c(Cl)c(Cl)ccc4n3C)CCN(S(=O)(=O)NC(C)=O)CC2)c1` [I-153 e2], 5000 to 10000 nM. The result for `Cn1c(C(=O)NC2(c3ccc(-c4nnn[nH]4)cc3)CCOC2)cc2c(Cl)c(Cl)ccc21` (racemic) [I-128 e148, (±)-4,5-Dichloro-1-methyl-N-[3-[4-(1H-tetrazol-5-yl)phenyl]tetrahydro-furan-3-yl]indole-2-carboxamide] reads 1 to 1000 nM.

Source of the values: US11634412B2, “3-phosphoglycerate dehydrogenase inhibitors and uses thereof” (Raze Therapeutics, Inc., priority 2016, dated 2023).
